Test results reported in article PMC5607274, “An iterative compound screening contest method for identifying target protein inhibitors using the tyrosine-protein kinase Yes” (Scientific Reports, 2017).

Experiments:
[1] = molecular target: T1, human recombinant Yes [a.a. 2–543 (end)] (Homo sapiens, UniProt P07947); experiment: ADP-Glo kinase assay, IC50 determination (dose-response curves) for Yes; format: biochemical; conditions: for dose-response relationship (DRR): IC50 determination; for "inhibition activity" in the whole range of concentrations: dose-response test, no DRR; for IC50: 5.5-nmol L−1 Yes, 0.013-mmol L−1 ATP, 0.2-mg mL−1 substrate (poly Glu-Tyr, 4:1)
T1 construct: human recombinant Yes [a.a; 2–543 (end)]; purchased BPS Bioscience 40488
Protocol: All inhibitory assays of the phosphorylation activity of Yes were performed in accordance with the Promega Technical Manual for the ADP-Glo™ Kinase Assay (Fitchburg, WI, USA. Catalog number: V9102). The human recombinant Yes [a.a. 2–543 (end)] was purchased from BPS Bioscience (catalog number: 40488). The details of the assay protocol and reagent information are given elsewhere.
The screening was conducted in three steps consisting of the first screening, the second screening, and the IC50 determination, as can be illustrated in Fig. 1b. First, we determined the inhibition rates of the 1,991 compounds. Each compound was placed in 4 wells of a 384-well plate. In total, 80 compounds were assayed on one plate and the other wells were used for positive and negative controls. The compounds were randomly placed on plates so that compounds proposed by one group were not placed on a plate together. A mean of four inhibition rates for each compound was compared to criteria for the first screening. […] Second, the inhibition rates of the screened compounds were determined on one plate using the same procedure of the first screening, where compounds were dissolved from fresh powder. […] Screened compounds were then evaluated for their IC50 values. […]
determine their IC50 values. Each dose-response curve was initially built using 8-point, 2-fold serial dilutions starting at 100 μmol L−1, with each concentration point in 4 […]
Assay was carried out under the same conditions as the primary screening, in summary, the final reagent concentrations were 5.5-nmol L−1 Ye s , 0.013-mmol L−1 ATP, and 0.2-mg mL−1 substrate (poly Glu-Tyr peptides, Glu:Tyr=4:1).
The curves were analyzed by GraphPad Prism (sigmoidal fit with variable slope). IC50 […]
standard deviations of the measurements.

[2] = molecular target: T1, human recombinant Yes [a.a. 2–543 (end)]; experiment: ADP-Glo kinase assay, inhibition rates of Yes phosphorylation activity (first and second screening); format: biochemical; conditions: 10 μmol L−1 compound; for First screening IR (inhibition rate): mean of n = 4 wells; for Second screening IR (inhibition rate): dissolved from fresh powder, n = 4
How it was run: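 ADP-Glo luminescence measured inhibition of human recombinant Yes (a.a. 2–543) phosphorylation activity. In the first screen, each compound ran in 4 wells and inhibition rates were averaged. The second screen retested hits as compounds dissolved from fresh powder.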

T1 sequence (P07947 2-543): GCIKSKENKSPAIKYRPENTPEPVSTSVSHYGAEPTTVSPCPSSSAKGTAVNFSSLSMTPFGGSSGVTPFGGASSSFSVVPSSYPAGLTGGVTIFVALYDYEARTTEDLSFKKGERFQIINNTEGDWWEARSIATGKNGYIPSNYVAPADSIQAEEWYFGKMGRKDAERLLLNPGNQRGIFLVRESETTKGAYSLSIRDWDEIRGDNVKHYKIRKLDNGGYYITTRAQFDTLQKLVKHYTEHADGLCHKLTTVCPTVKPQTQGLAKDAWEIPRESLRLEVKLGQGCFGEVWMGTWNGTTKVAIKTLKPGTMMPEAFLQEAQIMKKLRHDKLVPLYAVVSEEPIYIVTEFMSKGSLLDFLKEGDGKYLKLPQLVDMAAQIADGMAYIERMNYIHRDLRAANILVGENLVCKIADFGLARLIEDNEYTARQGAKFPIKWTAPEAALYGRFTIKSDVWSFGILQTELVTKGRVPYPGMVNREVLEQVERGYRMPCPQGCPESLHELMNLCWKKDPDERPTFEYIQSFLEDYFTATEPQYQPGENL

Row | Compound | First screening IR (inhibition rate) [2] | also measured
1 | COc1ccc(Br)cc1/C=N/Nc1ncnc2nc[nH]c12 [Compound Z57745307] | 62% | dose-response relationship (DRR) [1]: did not reveal a DRR; "inhibition activity" in the whole range of concentrations [1]: around 50%; Second screening IR (inhibition rate) [2]: 61%
2 | O=C(CSc1ccc2ccccc2n1)Nc1nsc(-c2ccc(Cl)cc2)n1 [Compound Z275023406] | 67% | IC50 [1]: 37.4 µM; dose-response relationship (DRR) [1]: good DRR; Second screening IR (inhibition rate) [2]: 64%
3 | CCCC(C)c1cc(NC(=O)c2ccc(N3CCNC3=O)cc2)n[nH]1 (stereo not drawn) [Compound Z1283491630] | 29% | dose-response relationship (DRR) [1]: did not reveal a DRR; "inhibition activity" in the whole range of concentrations [1]: around 50%; Second screening IR (inhibition rate) [2]: 49%
4 | Cc1cc(N2CCc3c(ncn3C3CC3)C2)c2cc(OC(F)F)ccc2n1 [Compound Z1252403274] | 72% | IC50 [1]: 20 µM; dose-response relationship (DRR) [1]: good DRR; Second screening IR (inhibition rate) [2]: 50%
5 | CC(=O)Nc1ccc(/C=N/Nc2ncnc3cc(-c4ccc(F)cc4)sc23)cc1 [Compound Z50080181] | 51% | dose-response relationship (DRR) [1]: did not reveal a DRR; "inhibition activity" in the whole range of concentrations [1]: around 50%; Second screening IR (inhibition rate) [2]: 47%
6 | Fc1ccc(-c2cc3ncnc(N/N=C/c4ccncc4)c3s2)cc1 [Compound Z50080378] | 67% | dose-response relationship (DRR) [1]: did not reveal a DRR; "inhibition activity" in the whole range of concentrations [1]: around 50%; Second screening IR (inhibition rate) [2]: 55%
7 | CC(C)CN1CCOC(CNC(=O)c2cc3cc(F)ccc3[nH]2)C1 (stereo not drawn) [Compound Z300664804] | -5% | 
8 | CN1C/C(=C/c2ccc(-n3cncn3)cc2)c2nc3ccccc3c(C(=O)O)c2C1 [Compound Z285929216] | 1% | 
9 | CNC1CCN(C(=O)c2ccc3c(c2)ncn3C(C)C)C1.Cl.Cl (stereo not drawn) [Compound Z1455845707] | 13% | 
10 | O=C(NCCc1cnn(-c2ccccc2)c1)c1cnn(-c2ccccc2)c1 [Compound Z234515634] | -7% | 
11 | c1cncc(-c2nc(SCc3nc4ccccc4o3)n[nH]2)c1 [Compound Z1095448120] | -2% | 
12 | Cc1nccn1-c1cncc(NCCOCCS(C)(=O)=O)n1 [Compound Z1513517715] | 17% | 
13 | O=C(/C=C/c1cc2ccccc2nc1N1CCOCC1)c1ccc(S(=O)(=O)N2CCCC2)cc1 [Compound Z46590414] | 1% | 
14 | COCCNC(=O)/C(=C\c1ccc(-c2cccc(Cl)c2)o1)NC(=O)c1ccc(OC)cc1 [Compound Z57239420] | 46% | 
15 | Cc1csc(CNC(=O)c2cc(-c3ccccc3)nc3c2cnn3C(C)C)n1 [Compound Z225893888] | 1% | 
16 | O=C1CCCCCN1CCCNC(=O)N1CCN(S(=O)(=O)c2c(Cl)cccc2Cl)CC1 [Compound Z183473124] | -3% | 
17 | O=C(O)c1c2c(nc3ccccc13)/C(=C\c1ccc(O)c(Br)c1)CCC2 [Compound Z46036098] | -2% | 

Row | Compound | First screening IR (inhibition rate) [2] | also measured
18 | Cc1ccccc1-n1c(SCC(=O)c2cc(C)n(CC3CCCO3)c2C)nnc1N1CCOCC1 (stereo not drawn) [Compound Z92475228] | 14% | 
19 | O=C(Nc1cc(-c2ccc(Br)s2)[nH]n1)c1ccc2c(c1)COC2 [Compound Z956276516] | 68% | 
20 | CC(C(=O)N1CCN(S(=O)(=O)c2ccccc2)CC1)N1CCC(C(N)=O)CC1 (stereo not drawn) [Compound Z123938232] | 0% | 
21 | COc1ccccc1C(=O)N=Nc1c(O)[nH]c2ccc(C)cc12 [Compound Z381428874] | 15% | 
22 | O=S1(=O)CCN(S(=O)(=O)Cl)CC1 [Compound Z432047124] | 0% | 
23 | N#Cc1ccc(Cl)cc1NC(=O)CSc1ncnc2ccccc12 [Compound Z19316082] | 18% | 
24 | O=C(Cc1coc(-c2ccccc2)n1)Nc1ccc2ccccc2n1 [Compound Z167063860] | -6% | 
25 | CC(CN(C)Cc1ccccc1)Nc1nc(N)c2ccccc2n1 (stereo not drawn) [Compound Z1593120476] | -10% | 
26 | CCCCN(C1CCS(=O)(=O)C1)S(C)(=O)=O (stereo not drawn) [Compound Z237523250] | -21% | 
27 | Cc1c(C)c(C)c(C(=O)OCC(=O)NCC(=O)N2CCCC2)c(C)c1C [Compound Z291423432] | -6% | 
28 | Cl.Oc1ccc(O)c(-c2cc(-c3ccccc3Cl)c3cc(Cl)ccc3n2)c1 [Compound Z134829678] | 25% | 
29 | CN(C)c1ccc(NC(=O)N(C)C2CS(=O)(=O)c3ccc(Cl)cc32)cn1 (stereo not drawn) [Compound Z1688689058] | -9% | 
30 | COc1cccc(NC(=O)COc2ncnc3ccccc23)c1 [Compound Z18537695] | -1% | 
31 | CCN(CC(=O)N1N=C(c2ccc(OC)cc2)CC1c1ccco1)Cc1nc2ccccc2c(=O)[nH]1 (stereo not drawn) [Compound Z46301463] | -6% | 
32 | COC(=O)c1cc(-c2ccc(OC)c(OC)c2)nc2c1c(C)nn2C1CCS(=O)(=O)C1 (stereo not drawn) [Compound Z91043666] | 2% | 
33 | CN1C/C(=C/c2ccc(SC(F)(F)F)cc2)c2nc3ccccc3c(C(=O)O)c2C1 [Compound Z196352976] | -14% | 
